Experimental findings from patent US20120101098A1, “3,28-DISUBSTITUTED BETULINIC ACID DERIVATIVES AS ANTI-HIV AGENTS” (priority 2009, published 2012) are described below.

pEC50: −log10 of the molar value. Read-outs that look alike come from different tables or passages of the source.

One series relates to HIV-1. The series is described as follows: Example 2 anti-HIV bioassay of C-28 ethylene glycol bevirimat analogs. The format is cell-based. The following applies: Example 2 compounds (Scheme B).
The nature of series [1]: in vitro.
A further series deals with HIV-1NL4-3. The series is described as follows: HIV-1NL4-3 replication inhibition assay in MT-4 lymphocytes (p24 antigen ELISA). Format: cell-based. An excerpt: HIV-1NL4-3 Replication Inhibition Assay in MT-4 Lymphocytes. A previously described HIV-1 infectivity assay was used.^28,33 A 96-well microtiter plate was used to set up the HIV-1NL4-3 replication screening assay. NL4-3 variants at a multiplicity of infection (MOI) of 0.01 were used to infect MT4 cells. Culture supernatants were collected on day 4 post-infection for the p24 antigen capture using an ELISA kit from ZeptoMetrix Corporation (Buffalo, N.Y.).

For another series, the system named is mock-infected MT-4 cell. The series is described as follows: Cytotoxicity in mock-infected MT-4 cells. Format: cell-based.
A short description of series [2]: Solubility (stated in words).
For the next series, the system named is HIV-1IIIB. The series is described as follows: HIV-1IIIB replication inhibition assay in MT-2 lymphocytes (p24 antigen ELISA). Format: cell-based. The settings on record: HIV-1IIIB infected MT-2 cell lines, concentration that inhibits HIV-1IIIB replication by 50%, NS: no suppression at concentrations below the CC50. (In general: An ELISA detects its analyte on a solid surface through an enzyme-linked reagent.)

Series [3] deals with mock-infected MT-2 cell. The series is described as follows: Cytotoxicity in mock-infected MT-2 cells (XTT). The following applies: concentration that inhibits mock-infected MT-2 cell growth by 50%.
Description: (§1) HIV-1IIIB Replication Inhibition Assay in MT-2 Lymphocytes. The evaluation of HIV-1 inhibition was carried out as follows. […] Control wells containing virus and cells only (no drug) and cells only (no virus or drug) were also prepared. A second identical set of samples were added to cells under the same conditions without virus (mock infection) for cytotoxicity determinations (CC50 defined below). […] On day 4 PI, the assay was terminated and culture supernatants were harvested for p24 antigen ELISA analysis. The compound cytotoxicity was determined by XTT using the mock-infected sample wells.
Series [4] can be described thus: Example 2 bioassay cytotoxicity (CC50). The settings on record: Example 2 compounds (Scheme B).
The nature of series [5]: Protein binding affinity (stated in words, Example 2). The settings on record: Example 2 compounds (Scheme B). The format is in vitro ADME.
For series [6] the following is noted: human, microsomes.
Series [7] has as its system mock-infected MT-2 cell.
Description: as §1
A short description of series [8]: in vitro. The following applies: human, mock-infected MT-2 cells.
Description: as §1
The nature of series [9]: In vitro metabolic stability in pooled human liver microsomes. The settings on record: 3 μM, 0.2 mg/mL human liver microsome, NADPH.
Where [10] appears, read: HIV-1NL4-3 infected MT-4 cell lines, concentration that inhibits HIV-1NL4-3 replication by 50%.
Where [11] appears, read: Example 2 compounds (Scheme B), C-28 ethylene glycol side chains on bevirimat.
Where [12] appears, read: Human immunodeficiency virus 1, MT2.

Description for HIV-1IIIB: as §1

For `C=C(C)[C@@H]1CC[C@]2(C(=O)O)CC[C@]3(C)[C@H](CC[C@@H]4[C@@]5(C)CC[C@H](OC(=O)CC(C)(C)C(=O)O)C(C)(C)[C@@H]5CC[C@]43C)[C@@H]12` [Compound 2, bevirimat, reference compound], in the series on HIV-1 (Human immunodeficiency virus 1), the pEC50 was 7.20. The compound further showed a CC50 in “in vitro [1]” of 16.3 µM.

Compound `C=C(C)[C@@H]1CC[C@]2(C(=O)NCCCCCCCC(=O)N[C@@H](CC(C)C)[C@H](O)CC(=O)O)CC[C@]3(C)[C@H](CC[C@@H]4[C@@]5(C)CC[C@H](O)C(C)(C)[C@@H]5CC[C@]43C)[C@@H]12` [Compound 3b, IC9564, reference compound] had a pEC50 in the series with HIV-1NL4-3 (setting [10]) of 7.05. The compound further displayed a CC50 in the series with mock-infected MT-4 cell above 10 µM.

Take `C=C(C)[C@@H]1CC[C@]2(C(=O)NCCCCCCCNC(C)=O)CC[C@]3(C)[C@H](CC[C@@H]4[C@@]5(C)CC[C@H](O)C(C)(C)[C@@H]5CC[C@]43C)[C@@H]12` [Compound 4, A43-D, reference compound]: the pEC50 with HIV-1NL4-3 (setting [10]) was 7.04; in the series on HIV-1NL4-3 (value of prior best entry inhibitor 4 as given in text, unit inferred), 7.00. The same compound came in with a CC50 in the series on mock-infected MT-4 cell above 10 µM.

Take `C=C(COCCN1CCOCC1)[C@@H]1CC[C@]2(C(=O)NCCCCCCCC(=O)O)CC[C@]3(C)[C@H](CC[C@@H]4[C@@]5(C)CC[C@H](O)C(C)(C)[C@@H]5CC[C@]43C)[C@@H]12` [Compound 20, N-[3β-Hydroxy-30-(2′-morpholinoethoxy)-lup-20(29)-en-28-oyl]-8-aminooctanoic acid]: the “solubility (in words)” value in [2] (Example 1 compounds) is “increase in the derivative's solubility”; in [2] (setting [11]) it was “increased solubility”. Besides, the pEC50 with HIV-1IIIB is 5.74; with HIV-1, 6.77. For the same compound, the results for the CC50 (in the series on mock-infected MT-2 cell [3]; in [4]) were 24.8 µM and 12.4 µM, respectively. For the same compound, the “protein binding affinity (in words)” value in series [5] was “decreased protein binding affinity”.

Turning to `C=C(COCCN1CCOCC1)[C@@H]1CC[C@]2(C(=O)NCCCCCCCC(=O)NC)CC[C@]3(C)[C@H](CC[C@@H]4[C@@]5(C)CC[C@H](O)C(C)(C)[C@@H]5CC[C@]43C)[C@@H]12` [Compound 21], the “solubility (in words)” value in [2] (Example 1 compounds) is “good solubility”; in series [2] (setting [11]), “increased solubility”. Also, the pEC50 in the series with HIV-1IIIB is 7.05; in the series on HIV-1NL4-3 (setting [10]) it was 7.05; in the series on HIV-1, 7.34. For the same compound, the CC50 in the series with mock-infected MT-4 cell (concentration that inhibits mock-infected MT-4 cell growth by 50%, read-out: CC50) was above 10 µM; in the series with mock-infected MT-2 cell [3], 22.3 µM; in [4], 12 µM. In series [5], the “protein binding affinity (in words)” value is “decreased protein binding affinity”.

Regarding `C=C(C)[C@@H]1CC[C@]2(C(=O)NCCCCCCCC(=O)O)CC[C@]3(C)[C@H](CC[C@@H]4[C@@]5(C)CC[C@H](O)C(C)(C)[C@@H]5CC[C@]43C)[C@@H]12` [Compound 23, N-[3β-Hydroxy-lup-20(29)-en-28-oyl]-8-aminooctanoic acid], in the series on HIV-1IIIB, the pEC50 is 5.48. In [6], the “half life (t1/2, time to lose 50% of parent)” value is “around 35 min”. Also, the CC50 in the series on mock-infected MT-2 cell [7] amounted to 33.4 µM.

Regarding `C=C(CBr)[C@@H]1CC[C@]2(C(=O)NC(CC(C)C)C(=O)O)CC[C@]3(C)[C@H](CC[C@@H]4[C@@]5(C)CC[C@H](OC(=O)CC(C)(C)C(=O)O)C(C)(C)[C@@H]5CC[C@]43C)[C@@H]12` (stereo partly drawn) [Compound 30, N-[3β-O-(3′,3′-Dimethylsuccinyl)-30-bromo-lup-20(29)-en-28-oyl]-leucine], the melting point lay within 105 to 107 °C. Further, the CC50 at 4 day in “in vitro [8]” was determined as 33.2 µM. The pEC50 in the series on HIV-1IIIB (setting [12]) is 7.96.

Compound `C=C(C)[C@@H]1CC[C@]2(C(=O)N[C@@H](CC(C)C)C(=O)O)CC[C@]3(C)[C@H](CC[C@@H]4[C@@]5(C)CC[C@H](NC(=O)CC(C)(C)C(=O)O)C(C)(C)[C@@H]5CC[C@]43C)[C@@H]12` [Compound 36, N′-[3β-(3′,3′-Dimethylsuccinyl)-lup-20(29)-en-28-oyl]-leucine] displayed a melting point of 248 to 250 °C. The compound also gave a pEC50 with HIV-1IIIB (setting [12]) of 4.88. In addition, the CC50 with mock-infected MT-2 cell [3] turned out to be 35.9 µM.

In the case of `C=C(C)[C@@H]1CC[C@]2(C(=O)N3CCC(CCCC(=O)O)CC3)CC[C@]3(C)[C@H](CC[C@@H]4[C@@]5(C)CC[C@H](O)C(C)(C)[C@@H]5CC[C@]43C)[C@@H]12` [Compound 38, N-[3β-Hydroxy-lup-20(29)-en-28-oyl]-4-piperidine butyric acid], the melting point lay within 145 to 146 °C. In the series with HIV-1IIIB (setting [12]), this compound showed a pEC50 of 4.66. Further, the CC50 in the series on mock-infected MT-2 cell [3] amounted to 41 µM. Besides, in series [9] (incubation time 0 min), the “Persentage of Remaining Parent Compounds (X ± SD) %” value stood at 100.0%. Moreover, the “Persentage of Remaining Parent Compounds (X ± SD) %” value in series [9] (incubation time 5 min) is given as 101.7 ± 4.7%. In series [9] (incubation time 15 min), the “Persentage of Remaining Parent Compounds (X ± SD) %” value amounted to 97.6 ± 6.2%. In series [9] (incubation time 30 min), the “Persentage of Remaining Parent Compounds (X ± SD) %” value is on record as 81.4 ± 8.6%. The “Persentage of Remaining Parent Compounds (X ± SD) %” value in [9] (incubation time 60 min) turned out to be 62.7 ± 4.3%. The “Persentage of Remaining Parent Compounds (X ± SD) %” value in series [9] (incubation time 120 min) is given as 53.8 ± 3.8%.

Turning to `C=C(C)[C@@H]1CC[C@]2(C(=O)N3CCC(CCCC(=O)NC)CC3)CC[C@]3(C)[C@H](CC[C@@H]4[C@@]5(C)CC[C@H](OC(=O)CC(C)(C)C(=O)O)C(C)(C)[C@@H]5CC[C@]43C)[C@@H]12` [Compound 45], the pEC50 in the series on HIV-1IIIB is 7.17; with HIV-1NL4-3 (setting [10]), 6.62. Besides, the figures for the CC50 in the series on mock-infected MT-4 cell and in the series with mock-infected MT-2 cell [3] were above 10 µM and 33.3 µM, respectively.

As to `C=C(C)[C@@H]1CC[C@]2(C(=O)N3CCC(CCCC(=O)N4CCOCC4)CC3)CC[C@]3(C)[C@H](CC[C@@H]4[C@@]5(C)CC[C@H](OC(=O)CC(C)(C)C(=O)O)C(C)(C)[C@@H]5CC[C@]43C)[C@@H]12` [Compound 46, N′-[N-[3β-O-(3′,3′-Dimethylsuccinyl)-lup-20(29)-en-28-oyl]-4-piperidine-butanoyl]-morpholine], the pEC50 with HIV-1IIIB was 7.96; in the series with HIV-1NL4-3 (setting [10]) it was 7.15. For the same compound, the CC50 with mock-infected MT-4 cell was 8.8 µM; in the series with mock-infected MT-2 cell [3] it was 19.2 µM.

In the case of `C=C(C)[C@@H]1CC[C@]2(C(=O)N3CCC(CCCC(=O)NCCN4CCOCC4)CC3)CC[C@]3(C)[C@H](CC[C@@H]4[C@@]5(C)CC[C@H](OC(=O)CC(C)(C)C(=O)O)C(C)(C)[C@@H]5CC[C@]43C)[C@@H]12` [Compound 47, N′-[N-[3β-O-(3′,3′-Dimethylsuccinyl)-lup-20(29)-en-28-oyl]-4-piperidine-butanoyl]-2-aminoethylmorpholine], the pEC50 in the series on HIV-1IIIB was 8.15; in the series with HIV-1NL4-3 (setting [10]), 7.46. The CC50 in the series with mock-infected MT-4 cell turned out to be 8.5 µM; with mock-infected MT-2 cell [3], 17.3 µM.

With `C=C(C)[C@@H]1CC[C@]2(C(=O)N3CCC(CCCC(=O)NCCCN4CCOCC4)CC3)CC[C@]3(C)[C@H](CC[C@@H]4[C@@]5(C)CC[C@H](OC(=O)CC(C)(C)C(=O)O)C(C)(C)[C@@H]5CC[C@]43C)[C@@H]12` [Compound 48, N′-[N-[3β-O-(3′,3′-Dimethylsuccinyl)-lup-20(29)-en-28-oyl]-4-piperidine-butanoyl]-3-aminopropylmorpholine], the pEC50 with HIV-1IIIB was 8.22; in the series with HIV-1NL4-3 (setting [10]) it was 7.51. The CC50 in the series on mock-infected MT-4 cell turned out to be 8.6 µM; in the series on mock-infected MT-2 cell [3], 18.5 µM.

The pEC50 is the negative decadic logarithm of the EC50, by convention in mol/L. A higher pEC50 goes with a small EC50. One may read the melting point as the temperature, or range, at which the solid turns liquid.
